Laboratory results: US12371454B2, “Cyclic peptide compound having Kras inhibitory action” (priority 2019, dated 2025)
Starred links: 1 amine or outer side, 2 acyl side, 3 side chain; linkers in the order of their positions; H or OH if unused. Positions of bridges follow the written chain, without caps; N, C: chain ends. Non-standard residues stand in square brackets, D forms with d. Residues, ends and D or L forms follow the SMILES beside them. *: point of attachment. NMeAbu(3,3-F2-piperidino) = CN[C@@H](CCN1CCCC(F)(F)C1)C(=O)O; hPhe(3-Cl-4-CF3) = N[C@@H](CCc1ccc(C(F)(F)F)c(Cl)c1)C(=O)O; hPhe(4-CF3) = N[C@@H](CCc1ccc(C(F)(F)F)cc1)C(=O)O; NMePhe(4-Cl) = CN[C@@H](Cc1ccc(Cl)cc1)C(=O)O; NMePhe(4-Me) = CN[C@@H](Cc1ccc(C)cc1)C(=O)O; NMePhe(2-Cl) = CN[C@@H](Cc1ccccc1Cl)C(=O)O; NMePhe(4-F) = CN[C@@H](Cc1ccc(F)cc1)C(=O)O; NMedβ3hAla = C[C@H](CC(=O)[*:2])N(C)[*:1]; X22 = O=C([C@@H]1Cc2ccccc2N1[*:1])[*:2]; NMeGly(cPent) = CN[C@H](C(=O)O)C1CCCC1; Phe(3-I) = N[C@@H](Cc1cccc(I)c1)C(=O)O; Phe(4-F) = N[C@@H](Cc1ccc(F)cc1)C(=O)O; Pro(4,4-F2) = O=C(O)[C@@H]1CC(F)(F)CN1; NMeAla(cPr) = CN[C@@H](CC1CC1)C(=O)O; NMeY = CN[C@@H](Cc1ccc(O)cc1)C(=O)O; Pip(4-oxo) = O=C1CCN[C@H](C(=O)O)C1; NMeCha = CN[C@@H](CC1CCCCC1)C(=O)O; NMeAoc(2) = CCCCCC[C@H](NC)C(=O)O; NMehLeu = CN[C@@H](CCC(C)C)C(=O)O; NMeChg = CN[C@H](C(=O)O)C1CCCCC1; NMeI = CC[C@H](C)[C@H](NC)C(=O)O; dNMeF = CN[C@H](Cc1ccccc1)C(=O)O; NMeD = CN[C@@H](CC(=O)O)C(=O)O; NMeL = CN[C@@H](CC(C)C)C(=O)O; NEtAla = CCN[C@@H](C)C(=O)O; NMeV = CN[C@H](C(=O)O)C(C)C; d(β3hA) = C[C@@H](N)CC(=O)O; NMeS = CN[C@@H](CO)C(=O)O; NMeA = CN[C@@H](C)C(=O)O; NMeAib = CNC(C)(C)C(=O)O; Nle = CCCC[C@H](N)C(=O)O; Piperidide = C1CCN(*)CC1; Ac5c = NC1(C(=O)O)CCCC1; Aze = O=C(O)[C@@H]1CCN1; Ac4c = NC1(C(=O)O)CCC1; CH2CMe2OH = CC(C)(O)C*; Aib = CC(C)(N)C(=O)O; Isopentyl = CC(C)CC*; NEtG = CCNCC(=O)O; Sar = CNCC(=O)O

What follows are compounds tested against T1, Kras and SOS1 (biotin-tagged human Kras loaded with GDP, His-tagged human SOS1) (Homo sapiens, UniProt P01116, G12D) (assay: Protein-protein interaction inhibition between Kras and SOS1 (KrasGl2D-SOS PPI) using AlphaScreen). Details: AlphaScreen; biotin-tagged human Kras loaded with GDP, His-tagged human SOS1; read-out: KRAS G12D-SOS PPI IC50.
T1 construct: made in house; host or cells: E. coli (stated for Kras only)
Type: binding
Outline: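 Energy transfer from nickel-chelate donor beads bound to His-SOS1 to streptavidin acceptor beads bound to biotin-Kras, expressed in E. coli and loaded with GDP after purification, was monitored. Donors were excited at 680 nm; singlet oxygen reaching acceptors gave emission read at 520-620 nm.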

T1 sequence (P01116 1-188 isoform P01116-2 G12D): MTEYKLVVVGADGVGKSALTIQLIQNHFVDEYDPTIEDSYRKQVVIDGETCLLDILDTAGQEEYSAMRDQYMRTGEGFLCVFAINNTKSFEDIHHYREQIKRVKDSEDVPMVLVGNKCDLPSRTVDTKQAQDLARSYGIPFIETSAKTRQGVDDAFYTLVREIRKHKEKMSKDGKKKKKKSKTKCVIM

Point of comparison: CC[C@H](C)[C@@H]1NC(=O)[C@H](CC(C)C)N(C)C(=O)C[C@@H](C)NC(=O)[C@H](CCC(C)C)N(C)C(=O)C2(CCCC2)NC(=O)[C@@H]2CCCN2C(=O)[C@H](CCc2ccc(C(F)(F)F)c(Cl)c2)NC(=O)CN(C)C(=O)[C@H](CC2CCCCC2)N(C)C(=O)CN(C)C(=O)CN(C)C1=O [Compound 586] (cyclo([Ac5c][NMehLeu][d(β3hA)][NMeL]I[Sar][Sar][NMeCha][Sar][hPhe(3-Cl-4-CF3)]P)), IC50 160 nM. Against it:
- CC[C@H](C)[C@@H]1NC(=O)[C@H](CC(C)C)N(C)C(=O)C[C@@H](C)NC(=O)[C@H](CC(C)C)N(C)C(=O)C(C)(C)NC(=O)[C@H](COCC(C)(C)O)N(C)C(=O)[C@H](CCc2ccc(C(F)(F)F)c(Cl)c2)NC(=O)CN(C)C(=O)[C@H](COCCC(C)C)N(C)C(=O)[C@@H]2CCN2C(=O)CN(CC)C1=O [Compound 1472] (cyclo([Aib][NMeL][d(β3hA)][NMeL]I[NEtG][Aze][NMeS](Isopentyl)[Sar][hPhe(3-Cl-4-CF3)][NMeS](CH2CMe2OH))) — 2.4-fold lower, 67 nM
- CC[C@H](C)[C@@H]1NC(=O)[C@H](C)N(CC)C(=O)C[C@@H](C)NC(=O)[C@H](C(C)C)N(C)C(=O)C2(CCCC2)NC(=O)[C@@H]2CCCN2C(=O)[C@H](CCc2ccc(C(F)(F)F)c(Cl)c2)NC(=O)CN(C)C(=O)[C@H](CC2CCCCC2)N(C)C(=O)CN(C)C(=O)CN(C)C1=O [Compound 196] (cyclo([Ac5c][NMeV][d(β3hA)][NEtAla]I[Sar][Sar][NMeCha][Sar][hPhe(3-Cl-4-CF3)]P)) — 12-fold lower, 13 nM
- CC[C@H](C)[C@@H]1NC(=O)[C@H](CC(C)C)N(C)C(=O)C[C@@H](C)NC(=O)[C@H](CC(C)C)N(C)C(=O)C(C)(C)NC(=O)[C@@H]2CCCN2C(=O)[C@H](CCc2ccc(C(F)(F)F)cc2)NC(=O)CN(C)C(=O)[C@H](Cc2ccc(Cl)cc2)N(C)C(=O)CN(C)C(=O)CN(C)C1=O [Compound 1013] (cyclo([Aib][NMeL][d(β3hA)][NMeL]I[Sar][Sar][NMePhe(4-Cl)][Sar][hPhe(4-CF3)]P)) — 5.2-fold lower, 31 nM
- CC[C@H](C)[C@@H]1NC(=O)[C@H](CC(C)C)N(C)C(=O)C[C@@H](C(=O)N2CCCCC2)N(C)C(=O)[C@H](C2CCCCC2)N(C)C(=O)C2(CCCC2)NC(=O)[C@@H]2CC(=O)CCN2C(=O)[C@H](CCc2ccc(C(F)(F)F)c(Cl)c2)NC(=O)CN(C)C(=O)[C@H](CC2CCCCC2)N(C)C(=O)CN(C)C(=O)CN(C)C1=O [Compound 1089] ([NMeL]I[Sar][Sar][NMeCha][Sar][hPhe(3-Cl-4-CF3)][Pip(4-oxo)][Ac5c][NMeChg][NMeD]-Piperidide; lactam N-11) — 100-fold lower, 1.6 nM
- CC[C@H](C)[C@@H]1NC(=O)[C@H](CC(C)C)N(C)C(=O)C[C@@H](C)N(C)C(=O)[C@H](C2CCCC2)N(C)C(=O)C2(CCC2)NC(=O)[C@@H]2CC(F)(F)CN2C(=O)[C@H](CCc2ccc(C(F)(F)F)c(Cl)c2)NC(=O)CN(C)C(=O)[C@H](CC2CCCCC2)N(C)C(=O)CN(C)C(=O)CN(C)C1=O [Compound 962] (cyclo([Ac4c][NMeGly(cPent)][NMedβ3hAla][NMeL]I[Sar][Sar][NMeCha][Sar][hPhe(3-Cl-4-CF3)][Pro(4,4-F2)])) — 21-fold lower, 7.8 nM
- CC[C@H](C)[C@@H]1NC(=O)[C@H](C)N(C)C(=O)C[C@@H](C(=O)N(C)C)N(C)C(=O)[C@H]([C@@H](C)CC)N(C)C(=O)C2(CCCC2)NC(=O)[C@@H](Cc2ccccc2)N(C)C(=O)[C@H](CCc2ccc(C(F)(F)F)c(Cl)c2)NC(=O)CN(C)C(=O)[C@H](Cc2ccc(C)cc2)N(C)C(=O)[C@@H]2CCN2C(=O)[C@H](C)N(C)C1=O [Compound 1889] ([NMeA]I[NMeA][Aze][NMePhe(4-Me)][Sar][hPhe(3-Cl-4-CF3)][dNMeF][Ac5c][NMeI][NMeD]-NMe2; lactam N-11) — 1.6-fold lower, 98 nM
- CCCCCC[C@H]1C(=O)N[C@@H]([C@@H](C)CC)C(=O)N(C)CC(=O)N2CC[C@H]2C(=O)N(C)[C@@H](Cc2ccc(OC)cc2)C(=O)N(C)CC(=O)N[C@@H](Cc2cccc(I)c2)C(=O)N[C@@H](CCCC)C(=O)N(C)C(C)(C)C(=O)N[C@@H](CC(C)C)C(=O)N(C)[C@H](C(=O)N2CCCCC2)CC(=O)N1C [Compound 1417] ([NMeAoc(2)]I[Sar][Aze][NMeY](Me)[Sar][Phe(3-I)][Nle][NMeAib]L[NMeD]-Piperidide; lactam N-11) — 5.5-fold lower, 29 nM
- CC[C@H](C)[C@@H]1NC(=O)[C@H](CC(C)C)N(C)C(=O)C[C@@H](C)NC(=O)[C@H](C(C)C)N(C)C(=O)C2(CCCC2)NC(=O)[C@@H]2CCCN2C(=O)[C@H](CCc2ccc(C(F)(F)F)c(Cl)c2)NC(=O)CN(C)C(=O)[C@H](Cc2ccccc2Cl)N(C)C(=O)CN(C)C(=O)CN(C)C1=O [Compound 1591] (cyclo([Ac5c][NMeV][d(β3hA)][NMeL]I[Sar][Sar][NMePhe(2-Cl)][Sar][hPhe(3-Cl-4-CF3)]P)) — 1.6-fold lower, 97 nM
- CC[C@H](C)[C@@H]1NC(=O)[C@H](C)N(C)C(=O)C[C@@H](C(=O)N2CCCCC2)N(C)C(=O)[C@H]([C@@H](C)CC)N(C)C(=O)C2(CCCC2)NC(=O)[C@H](Cc2ccc(F)cc2)N(C)C(=O)[C@H](CCc2ccc(C(F)(F)F)c(Cl)c2)NC(=O)CN(C)C(=O)[C@H](Cc2ccc(C)cc2)N(C)C(=O)[C@@H]2CCN2C(=O)[C@H](C)N(C)C1=O [Compound 1885] ([NMeA]I[NMeA][Aze][NMePhe(4-Me)][Sar][hPhe(3-Cl-4-CF3)][NMePhe(4-F)][Ac5c][NMeI][NMeD]-Piperidide; lactam N-11) — 5-fold lower, 32 nM
- CC[C@H](C)[C@@H]1NC(=O)[C@H](CC2CC2)N(C)C(=O)C[C@@H](C)NC(=O)[C@H](C(C)C)N(C)C(=O)C2(CCCC2)NC(=O)[C@@H]2CCCN2C(=O)[C@H](CCc2ccc(C(F)(F)F)c(Cl)c2)NC(=O)CN(C)C(=O)[C@H](CC2CCCCC2)N(C)C(=O)CN(C)C(=O)CN(C)C1=O [Compound 248] (cyclo([Ac5c][NMeV][d(β3hA)][NMeAla(cPr)]I[Sar][Sar][NMeCha][Sar][hPhe(3-Cl-4-CF3)]P)) — 5.2-fold lower, 31 nM
- CC[C@H](C)[C@@H]1NC(=O)[C@H](C)N(C)C(=O)C[C@@H](C(=O)N2CCCCC2)N(C)C(=O)[C@H](C(C)C)N(C)C(=O)C2(CCCC2)NC(=O)[C@H](CCN2CCCC(F)(F)C2)N(C)C(=O)[C@H](CCc2ccc(C(F)(F)F)c(Cl)c2)NC(=O)CN(C)C(=O)[C@H](CC2CCCCC2)N(C)C(=O)[C@@H]2CCN2C(=O)[C@H](C)N(C)C1=O [Compound 682] ([NMeA]I[NMeA][Aze][NMeCha][Sar][hPhe(3-Cl-4-CF3)][NMeAbu(3,3-F2-piperidino)][Ac5c][NMeV][NMeD]-Piperidide; lactam N-11) — 8-fold lower, 20 nM
- CC[C@H](C)[C@@H]1NC(=O)[C@H](CC(C)C)N(C)C(=O)C[C@@H](C(=O)N2CCCCC2)N(C)C(=O)[C@H](C2CCCCC2)N(C)C(=O)C2(CCCC2)NC(=O)[C@@H]2Cc3ccccc3N2C(=O)[C@H](CCc2ccc(C(F)(F)F)c(Cl)c2)NC(=O)CN(C)C(=O)[C@H](CC2CCCCC2)N(C)C(=O)[C@@H]2CCN2C(=O)CN(C)C1=O [Compound 725] ([NMeL]I[Sar][Aze][NMeCha][Sar][hPhe(3-Cl-4-CF3)][X22][Ac5c][NMeChg][NMeD]-Piperidide; lactam N-11) — 21-fold lower, 7.8 nM
- CC[C@H](C)[C@@H]1NC(=O)[C@H](CC(C)C)N(C)C(=O)C[C@@H](C(=O)N2CCCCC2)N(C)C(=O)[C@H](CC(C)C)NC(=O)C(C)(C)N(C)C(=O)[C@H](Cc2ccc(F)cc2)NC(=O)[C@H](Cc2cccc(I)c2)NC(=O)CN(C)C(=O)[C@H](CC2CCCCC2)N(C)C(=O)CN(C)C(=O)CN(C)C1=O [Compound 711] ([NMeL]I[Sar][Sar][NMeCha][Sar][Phe(3-I)][Phe(4-F)][NMeAib]L[NMeD]-Piperidide; lactam N-11) — 4.6-fold lower, 35 nM
